Test results from ChEMBL document CHEMBL3745641, “Discovery and Structure-Guided Optimization of Diarylmethanesulfonamide Disrupters of Glucokinase-Glucokinase Regulatory Protein (GK-GKRP) Binding: Strategic Use of a N → S (nN → σ*S-X) Interaction for Conformational Constraint” (J Med Chem, 2015).

How the values were obtained:
[1] = Intrinsic clearance in rat liver microsomes after 30 mins; assay type: ADME; conditions: read-out: CLH
[2] = Apparent permeability from apical to basolateral side in pig LLC-PK1 cells; assay type: ADME, cell-based, Sus scrofa
[3] = Oral bioavailability in Sprague-Dawley rat at 10 mg/kg; assay type: ADME, organism-based; conditions: in vivo
Blood = test: Drug uptake in po dosed db/db mouse blood administered qd measured after 6 hrs; assay type: ADME, organism-based; conditions: in vivo
[4] = Volume of distribution at steady state in Sprague-Dawley rat at 2 mg/kg, iv; assay type: ADME, organism-based; conditions: in vivo, read-out: Vdss
[5] = Plasma concentration in Sprague-Dawley rat at 100 mg/kg, po qd at 24 hrs; assay type: ADME, organism-based
[6] = Half life in Sprague-Dawley rat at 2 mg/kg, iv; assay type: ADME, organism-based; conditions: in vivo
[7] = Drug uptake in db/db mouse blood at 30 mg/kg, po qd after 6 hrs; assay type: ADME, organism-based; conditions: whole blood, read-out: Drug uptake
[8] = Plasma concentration in Sprague-Dawley rat at 10 mg/kg, po qd at 24 hrs; assay type: ADME, organism-based
Plasma = test: Drug uptake in po dosed Sprague-Dawley rat plasma administered qd measured after 6 hrs; assay type: ADME, organism-based; conditions: in vivo
[9] = Drug uptake in db/db mouse blood at 100 mg/kg, po qd after 6 hrs; assay type: ADME, organism-based; conditions: whole blood, read-out: Drug uptake
[10] = Cmax in Sprague-Dawley rat at 10 mg/kg, po; assay type: ADME, organism-based; set-up: dose 10 mg/kg, route oral; conditions: in vivo
[11] = Tmax in Sprague-Dawley rat at 10 mg/kg, po; assay type: ADME, organism-based; conditions: in vivo
[12] = Clearance in Sprague-Dawley rat at 2 mg/kg, iv; assay type: ADME, organism-based; conditions: in vivo
[13] = Plasma protein binding in rat by rapid equilibrium dialysis method; assay type: ADME, cell-free; conditions: read-out: PPB
[14] = Plasma concentration in Sprague-Dawley rat at 100 mg/kg, po qd after 6 hrs; assay type: ADME, organism-based
[15] = Drug uptake in db/db mouse blood at 10 mg/kg, po qd after 6 hrs; assay type: ADME, organism-based; conditions: whole blood, read-out: Drug uptake
[16] = Plasma concentration in Sprague-Dawley rat at 10 mg/kg, po qd after 6 hrs; assay type: ADME, organism-based
Hexokinase-4 [17] = target: T1, Hexokinase-4 (Homo sapiens, UniProt P35557); test: Effect on human glucokinase activity after 60 mins by luciferase-based luminescence assay in absence of human GKRP
T1 sequence (P35557 whole entry): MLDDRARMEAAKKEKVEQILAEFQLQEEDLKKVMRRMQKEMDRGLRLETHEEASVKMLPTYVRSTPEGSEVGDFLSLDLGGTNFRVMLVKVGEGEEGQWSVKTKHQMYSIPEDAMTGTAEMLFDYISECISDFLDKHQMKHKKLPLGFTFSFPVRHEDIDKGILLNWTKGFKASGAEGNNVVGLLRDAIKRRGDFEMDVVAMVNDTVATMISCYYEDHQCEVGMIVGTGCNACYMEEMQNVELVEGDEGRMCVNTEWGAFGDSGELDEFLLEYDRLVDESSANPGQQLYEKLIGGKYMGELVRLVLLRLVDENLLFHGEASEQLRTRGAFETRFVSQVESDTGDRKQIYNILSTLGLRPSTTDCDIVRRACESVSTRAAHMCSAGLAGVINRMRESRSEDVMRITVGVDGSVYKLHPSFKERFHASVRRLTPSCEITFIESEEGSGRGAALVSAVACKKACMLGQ

Hexokinase-4 [18] = target: T1, Hexokinase-4; test: Binding affinity to human glucokinase by surface plasmon resonance analysis
[19] = target: T2, Glucokinase regulatory protein (Mus musculus, UniProt Q91X44); test: Inhibition of glucokinase-GKRP binding interaction in mouse hepatocytes assessed as induction of glucokinase translocation; assay type: cell-based, Hepatocyte
T2 sequence (Q91X44 whole entry): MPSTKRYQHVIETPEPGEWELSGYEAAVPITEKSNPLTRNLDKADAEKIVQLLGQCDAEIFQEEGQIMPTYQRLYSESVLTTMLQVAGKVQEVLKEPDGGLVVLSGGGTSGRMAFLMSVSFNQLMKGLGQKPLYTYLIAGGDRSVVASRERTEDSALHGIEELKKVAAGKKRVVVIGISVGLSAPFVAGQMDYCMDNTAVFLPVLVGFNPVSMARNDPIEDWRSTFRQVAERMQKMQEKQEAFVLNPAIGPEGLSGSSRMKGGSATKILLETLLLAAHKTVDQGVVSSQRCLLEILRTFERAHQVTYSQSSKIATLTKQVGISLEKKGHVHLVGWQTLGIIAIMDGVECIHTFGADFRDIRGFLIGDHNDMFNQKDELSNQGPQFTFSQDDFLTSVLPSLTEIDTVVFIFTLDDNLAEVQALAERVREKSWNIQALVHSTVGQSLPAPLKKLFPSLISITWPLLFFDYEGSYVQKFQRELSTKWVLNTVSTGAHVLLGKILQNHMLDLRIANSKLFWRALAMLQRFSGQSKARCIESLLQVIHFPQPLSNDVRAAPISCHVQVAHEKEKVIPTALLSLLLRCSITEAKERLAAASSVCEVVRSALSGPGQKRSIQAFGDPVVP

[20] = Drug uptake in db/db mouse blood at 100 mg/kg, po qd after 3 hrs; assay type: ADME, organism-based; conditions: whole blood, read-out: Drug uptake
Mus musculus [21] = test: Antidiabetic activity in db/db mouse assessed as reduction in blood glucose level at 100 mg/kg, po qd after 3 hrs relative to control; assay type: functional; set-up: scale not given: the % may be the effect or the level left
Mus musculus [22] = test: Antidiabetic activity in db/db mouse assessed as reduction in blood glucose level at 100 mg/kg, po qd after 6 hrs relative to control; assay type: functional; set-up: scale not given: the % may be the effect or the level left

| Structure (SMILES) | microsomal CLint [1] | Papp A→B [2] | EC50 [19] | further results |
| --- | --- | --- | --- | --- |
| CC(C)(O)c1ccnc(-c2cccc3cc([C@H](NS(=O)(=O)C4CC4)c4cc(N)ncc4Cl)sc23)c1 | 67 µL/min/mg | 19 ×10⁻⁶ cm/s |  |  |
| CC(C)(O)c1ccnc(-c2cccc3cc([C@H](NS(=O)(=O)C4CC4)c4nc(N)ncc4Cl)sc23)c1 | 28 µL/min/mg | 19 ×10⁻⁶ cm/s |  | bioavailability [3]: 25%; Drug uptake (Blood): Dose-dependent effect; Vd [4]: 1.3 L/kg; concentration at 24 h [5]: 210 nM; half-life [6]: 3 h; concentration at 6 h [7]: 4100 nM; concentration at 24 h [8]: 200 nM; Drug uptake (Plasma): Dose-dependent effect; concentration at 6 h [9]: 19000 nM; Cmax [10]: 1900 nM; Tmax [11]: 4.7 h; clearance [12]: 4.67 mL/min/kg; fraction unbound [13]: 0.01; concentration at 6 h [14]: 23000 nM; concentration at 6 h [15]: 1200 nM; concentration at 6 h [16]: 2900 nM |
| O=S(=O)(NC(c1ccccc1)c1cc2ccccc2o1)c1ccc2c(c1)OCCCO2 (stereo not given) |  |  |  | EC50 (Hexokinase-4 [17]): > 100 µM; Kd (Hexokinase-4 [18]): > 20 µM |
| C[C@](O)(c1ccnc(-c2cccc3cc([C@H](NS(=O)(=O)C4CC4)c4ccccc4Cl)sc23)c1)C(F)(F)F | < 14 µL/min/mg | 2.4 ×10⁻⁶ cm/s |  |  |
| O=S(=O)(N[C@@H](c1cc2ccccc2s1)c1ccccc1Cl)c1ccc2c(c1)OCC(F)(F)CO2 | > 399 µL/min/mg |  | > 12.5 µM |  |
| C[C@](O)(c1cccc(-c2cccc3cc([C@H](NS(=O)(=O)C4CC4)c4ccccc4Cl)sc23)c1)C(F)(F)F | < 14 µL/min/mg |  |  |  |
| O=S(=O)(N[C@@H](c1cc2ccccc2s1)c1ccccc1Cl)c1ccc2c(c1)OCC(F)CO2 (mixture of isomers) | > 399 µL/min/mg |  | 4.1 µM |  |
| O=S(=O)(N[C@@H](c1cc2ccccc2s1)c1ccccc1Cl)c1ccc2c(c1)OCC(O)CO2 (mixture of isomers) | 304 µL/min/mg |  | 4.3 µM |  |
| CC(C)(O)c1ccnc(-c2cccc3cc([C@H](NS(=O)(=O)C4CC4)c4c(Cl)cnc(N)c4F)sc23)c1 | 26 µL/min/mg | 16 ×10⁻⁶ cm/s |  | bioavailability [3]: 46%; Vd [4]: 1.6 L/kg; concentration at 3 h [20]: 25000 nM; concentration at 24 h [5]: 6300 nM; half-life [6]: 3.1 h; concentration at 24 h [8]: 220 nM; Drug uptake (Plasma): Dose-dependent effect; concentration at 6 h [9]: 21000 nM; Cmax [10]: 2800 nM; Tmax [11]: 3.3 h; clearance [12]: 6 mL/min/kg; fraction unbound [13]: 0.01; Activity (Mus musculus [21]): 45%; Activity (Mus musculus [22]): 33% |
| O=S(=O)(N[C@@H](c1cc2ccccc2s1)c1ccccc1Cl)c1ccc2c(c1)OCCCO2 | > 399 µL/min/mg |  |  | Kd (Hexokinase-4 [18]): > 10 µM |
| O=S(=O)(N[C@@H](c1cc2ccccc2s1)c1ccccc1Cl)c1ccc2c(c1)OCCO2 | > 399 µL/min/mg |  | > 12.5 µM |  |
| O=S(=O)(N[C@@H](c1cc2ccccc2s1)c1ccccc1Cl)c1ccccc1 | > 399 µL/min/mg |  | > 12.5 µM |  |
| O=S(=O)(N[C@H](c1ccccc1)c1cc2ccccc2o1)c1ccc2c(c1)OCCCO2 | > 399 µL/min/mg |  |  |  |
| C[C@@](O)(c1cccc(-c2cccc3cc([C@H](NS(=O)(=O)C4CC4)c4ccccc4Cl)sc23)c1)C(F)(F)F | < 14 µL/min/mg |  |  |  |
| CC(C)(O)c1ccnc(-c2cccc3cc([C@H](NS(=O)(=O)C4CC4)c4c(F)cccc4Cl)sc23)c1 | 18 µL/min/mg | 9.5 ×10⁻⁶ cm/s |  |  |
| O=S(=O)(N[C@@H](c1cc2ccccc2s1)c1ccccc1Cl)C1CC1 | > 399 µL/min/mg |  | > 12.5 µM |  |
| O=S(=O)(N[C@@H](c1cc2ccccc2s1)c1ccccc1Cl)c1ccc2c(c1)OCO2 | > 399 µL/min/mg |  | > 12.5 µM |  |
| CC(C)(O)c1ccnc(-c2cccc3cc([C@H](NS(=O)(=O)C4CC4)c4ccccc4Cl)sc23)c1 | 34 µL/min/mg | 7.5 ×10⁻⁶ cm/s |  |  |
| C[C@@](O)(c1ccnc(-c2cccc3cc([C@H](NS(=O)(=O)C4CC4)c4ccccc4Cl)sc23)c1)C(F)(F)F | < 14 µL/min/mg | < 1.8 ×10⁻⁶ cm/s |  |  |
| O=S(=O)(N[C@@H](c1nc2cccnc2s1)c1ccccc1Cl)c1ccc2c(c1)OCCCO2 | > 399 µL/min/mg |  | 3.3 µM |  |
| COc1ccc(S(=O)(=O)N[C@@H](c2cc3ccccc3s2)c2ccccc2Cl)cc1 | > 399 µL/min/mg |  | > 12.5 µM |  |
| O=S(=O)(N[C@@H](c1cc2ccccc2o1)c1ccccc1Cl)c1ccc2c(c1)OCCCO2 | > 399 µL/min/mg |  | 6.3 µM |  |
| CC(C)(O)c1ccnc(-c2cccc3cc([C@H](NS(=O)(=O)C4CC4)c4nc(N)c(F)cc4Cl)sc23)c1 | 28 µL/min/mg | 7.8 ×10⁻⁶ cm/s |  |  |
| CC(C)(O)c1ccnc(-c2cccc3cc([C@H](NS(=O)(=O)C4CC4)c4nc(N)ccc4Cl)sc23)c1 | 130 µL/min/mg | 11 ×10⁻⁶ cm/s |  |  |
